# Data: patent US7964531B2, “3-phenoxy-4-pyridazinol derivatives and herbicidal composition containing the same” (Mitsui Chemicals Agro, Inc., priority 2001, dated 2011)
# What was measured:
# Assay type in all cases: in vivo
# Sagittaria pygmaea = test: Test Example 4: herbicidal effects of mixed wettable powder, paddy-field pot test; details: no second compound, after 25 days
# Procedure, shortened: (§1)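 Flooded greenhouse pots of paddy soil were sown in the top 1 cm with dormancy-broken weed seeds and planted with tubers, and 2.2-leaf rice was transplanted. Three days later, water-diluted wettable powder was applied at set dosages, and growth inhibition was rated 25 days after that on a 0 (0–15%) to 5 (96–100%) scale.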
# [1] = system: annual broad-leaved weeds (Lindernia spp. and Rotala indica); test: as above; details: no second compound, after 25 days
# Procedure, shortened: as §1
# [2] = system: barnyardgrass (Echinochloa oryzicola Vasing.); test: as above; details: no second compound, after 25 days
# Procedure, shortened: as §1
# Scirpus joncoides [3] = test: as above; details: no second compound, after 25 days
# Procedure, shortened: as §1
# Cyperus serotinus [4] = test: as above; details: no second compound, after 25 days
# Procedure, shortened: as §1
# Eleocharis kuroguwai = test: as above; details: no second compound, after 25 days
# Procedure, shortened: as §1
# [5] = system: transplanted paddy-field rice; test: Test Example 1: crop injury against transplanted paddy-field rice; details: wettable powder applied 3 days after transplanting, judged after 25 days
# Procedure, shortened: (§2)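 Paddy soil pots sown with dormancy-broken weed seeds mixed into the top 1 cm, plus germinated Cyperus serotinus tubers and transplanted 2.2-leaf rice seedlings, grown flooded in a greenhouse. Water-diluted wettable powder applied 3 days after transplanting; growth inhibition scored 25 days later on a 0–5 scale (0 = 0–10%, 5 = 91–100%).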
# [6] = system: transplanted paddy-field rice; test: Test Example 4: crop injury against transplanted paddy-field rice; details: no second compound, after 25 days
# Procedure, shortened: as §1
# [7] = system: annual broad-leaved weeds (Lindernia spp., Rotala indica); test: Test Example 1: herbicidal effects, paddy-field pot test; details: wettable powder applied 3 days after transplanting, judged after 25 days
# Procedure, shortened: as §2
# [8] = system: barnyardgrass (Echinochloa oryzicola Vasing.); test: as above; details: wettable powder applied 3 days after transplanting, judged after 25 days
# Procedure, shortened: as §2
# Scirpus joncoides [9] = test: as above; details: wettable powder applied 3 days after transplanting, judged after 25 days
# Procedure, shortened: as §2
# Cyperus serotinus [10] = test: as above; details: wettable powder applied 3 days after transplanting, judged after 25 days
# Procedure, shortened: as §2
# barnyardgrass = test: Test Example 2: herbicidal effects (soil treatment); details: dosage 5 kg/a; soil treatment the day after seeding; judged after 21 days
# Source text: (§3) Judgment Standard • 0: Growth inhibition rate; 0 to 10% • 1: Growth inhibition rate; 11 to 30% • 2: Growth inhibition rate; 31 to 50% • 3: Growth inhibition rate; 51 to 70% • 4: Growth inhibition rate; 71 to 90% • 5: Growth inhibition rate; 91 to 100%.
# (§4) Upland soil was filled in 150 cm^2 pot, and seeds of barnyardgrass and indian mustard (Brassica juncea (L.) Czern. et Coss) were sowed, and grown in a greenhouse. At the next day of seeding, a predetermined chemical dosage of the wettable powder prepared in accordance with Preparation example 1 was diluted in water and applied to soil surface. After 21 days from the treatment, herbicidal effects were judged in accordance with the judgment standard of Test example 1, and the results were shown in Table 3.
# [11] = system: indian mustard (Brassica juncea (L.) Czern. et Coss); test: as above; details: dosage 5 kg/a; soil treatment the day after seeding; judged after 21 days
# Source text: as §3, §4
Compound,Herbicidal effects Sagittaria pygmaea (Sagittaria pygmaea; derivative 5 g/a),Herbicidal effects Sagittaria pygmaea (Sagittaria pygmaea; derivative 10 g/a),Herbicidal effects Broad leaf ([1]; derivative 5 g/a),Herbicidal effects Broad leaf ([1]; derivative 10 g/a),Herbicidal effects Barnyard grass ([2]; derivative 5 g/a),Herbicidal effects Barnyard grass ([2]; derivative 10 g/a),Herbicidal effects Scirpus joncoides (Scirpus joncoides [3]; derivative 5 g/a),Herbicidal effects Scirpus joncoides (Scirpus joncoides [3]; derivative 10 g/a),Herbicidal effects Cyperus serotinus (Cyperus serotinus [4]; derivative 5 g/a),Herbicidal effects Cyperus serotinus (Cyperus serotinus [4]; derivative 10 g/a),Herbicidal effects Eleocharis kuroguwai (Eleocharis kuroguwai; derivative 5 g/a),Herbicidal effects Eleocharis kuroguwai (Eleocharis kuroguwai; derivative 10 g/a),Crop injury against transplanted rice ([5]; chemical dosage 10 g/a),Crop injury against transplanted rice ([5]; chemical dosage 20 g/a),Crop injury against transplanted rice ([6]; derivative 5 g/a),Crop injury against transplanted rice ([6]; derivative 10 g/a),Herbicidal effects Broad leaf ([7]; chemical dosage 10 g/a),Herbicidal effects Broad leaf ([7]; chemical dosage 20 g/a),Herbicidal effects Barnyard grass ([8]; chemical dosage 10 g/a),Herbicidal effects Barnyard grass ([8]; chemical dosage 20 g/a),also measured
Cc1cccc(Br)c1Oc1nnc(Cl)cc1O [Example 249],5 (Growth inhibition rate; 96 to 100%),5 (Growth inhibition rate; 96 to 100%),5 (Growth inhibition rate; 96 to 100%),5 (Growth inhibition rate; 96 to 100%),1 (Growth inhibition rate; 16 to 35%),2 (Growth inhibition rate; 36 to 55%),3 (Growth inhibition rate; 56 to 75%),5 (Growth inhibition rate; 96 to 100%),5 (Growth inhibition rate; 96 to 100%),5 (Growth inhibition rate; 96 to 100%),1 (Growth inhibition rate; 16 to 35%),2 (Growth inhibition rate; 36 to 55%),0 (Growth inhibition rate; 0 to 10%),3 (Growth inhibition rate; 51 to 70%),0 (Growth-inhibition rate; 0 to 15%),0 (Growth-inhibition rate; 0 to 15%),5 (Growth inhibition rate; 91 to 100%),5 (Growth inhibition rate; 91 to 100%),2 (Growth inhibition rate; 31 to 50%),3 (Growth inhibition rate; 51 to 70%),Herbicidal effects Scirpus joncoides (Scirpus joncoides [9]; chemical dosage 10 g/a): 5 (Growth inhibition rate; 91 to 100%); Herbicidal effects Scirpus joncoides (Scirpus joncoides [9]; chemical dosage 20 g/a): 5 (Growth inhibition rate; 91 to 100%); Herbicidal effects Cyperus serotinus (Cyperus serotinus [10]; chemical dosage 10 g/a): 5 (Growth inhibition rate; 91 to 100%); Herbicidal effects Cyperus serotinus (Cyperus serotinus [10]; chemical dosage 20 g/a): 5 (Growth inhibition rate; 91 to 100%); Herbicidal effects Barnyard-grass (barnyardgrass): 4 (Growth inhibition rate; 71 to 90%); Herbicidal effects indian mustard [11]: 5 (Growth inhibition rate; 91 to 100%)
Oc1cc(Cl)nnc1Oc1c(Cl)cccc1C1CC1 [Example 245],4 (Growth inhibition rate; 7.6 to 95%),5 (Growth inhibition rate; 96 to 100%),5 (Growth inhibition rate; 96 to 100%),5 (Growth inhibition rate; 96 to 100%),3 (Growth inhibition rate; 56 to 75%),4 (Growth inhibition rate; 7.6 to 95%),5 (Growth inhibition rate; 96 to 100%),5 (Growth inhibition rate; 96 to 100%),4 (Growth inhibition rate; 7.6 to 95%),5 (Growth inhibition rate; 96 to 100%),0 (Growth-inhibition rate; 0 to 15%),1 (Growth inhibition rate; 16 to 35%),0 (Growth inhibition rate; 0 to 10%),0 (Growth inhibition rate; 0 to 10%),0 (Growth-inhibition rate; 0 to 15%),0 (Growth-inhibition rate; 0 to 15%),5 (Growth inhibition rate; 91 to 100%),5 (Growth inhibition rate; 91 to 100%),4 (Growth inhibition rate; 71 to 90%),4 (Growth inhibition rate; 71 to 90%),Herbicidal effects Scirpus joncoides (Scirpus joncoides [9]; chemical dosage 10 g/a): 5 (Growth inhibition rate; 91 to 100%); Herbicidal effects Scirpus joncoides (Scirpus joncoides [9]; chemical dosage 20 g/a): 5 (Growth inhibition rate; 91 to 100%); Herbicidal effects Cyperus serotinus (Cyperus serotinus [10]; chemical dosage 10 g/a): 5 (Growth inhibition rate; 91 to 100%); Herbicidal effects Cyperus serotinus (Cyperus serotinus [10]; chemical dosage 20 g/a): 5 (Growth inhibition rate; 91 to 100%); Herbicidal effects Barnyard-grass (barnyardgrass): 3 (Growth inhibition rate; 51 to 70%); Herbicidal effects indian mustard [11]: 5 (Growth inhibition rate; 91 to 100%)
Oc1cc(Cl)nnc1Oc1cccc2c1CCC2 [Example 171],5 (Growth inhibition rate; 96 to 100%),5 (Growth inhibition rate; 96 to 100%),5 (Growth inhibition rate; 96 to 100%),5 (Growth inhibition rate; 96 to 100%),2 (Growth inhibition rate; 36 to 55%),3 (Growth inhibition rate; 56 to 75%),5 (Growth inhibition rate; 96 to 100%),5 (Growth inhibition rate; 96 to 100%),5 (Growth inhibition rate; 96 to 100%),5 (Growth inhibition rate; 96 to 100%),2 (Growth inhibition rate; 36 to 55%),3 (Growth inhibition rate; 56 to 75%),0 (Growth inhibition rate; 0 to 10%),0 (Growth inhibition rate; 0 to 10%),0 (Growth-inhibition rate; 0 to 15%),0 (Growth-inhibition rate; 0 to 15%),5 (Growth inhibition rate; 91 to 100%),5 (Growth inhibition rate; 91 to 100%),3 (Growth inhibition rate; 51 to 70%),4 (Growth inhibition rate; 71 to 90%),Herbicidal effects Scirpus joncoides (Scirpus joncoides [9]; chemical dosage 10 g/a): 5 (Growth inhibition rate; 91 to 100%); Herbicidal effects Scirpus joncoides (Scirpus joncoides [9]; chemical dosage 20 g/a): 5 (Growth inhibition rate; 91 to 100%); Herbicidal effects Cyperus serotinus (Cyperus serotinus [10]; chemical dosage 10 g/a): 5 (Growth inhibition rate; 91 to 100%); Herbicidal effects Cyperus serotinus (Cyperus serotinus [10]; chemical dosage 20 g/a): 5 (Growth inhibition rate; 91 to 100%); Herbicidal effects Barnyard-grass (barnyardgrass): 5 (Growth inhibition rate; 91 to 100%); Herbicidal effects indian mustard [11]: 5 (Growth inhibition rate; 91 to 100%)
